A value given as a limit tells only on which side of the number the result lay.

One may read the GI50 as the concentration giving 50% growth inhibition.

What all share (type): cell-based
One assay has as its system SU-DHL-16. Put plainly: Inhibition of GC derived B cell lymphoma lines in culture. As to conditions: Homo sapiens, SU-DHL-16, 120 h, read-out: Growth Inhibition Relative to Vehicle Control, GI50%.
In another assay the test system is DU-145. Put plainly: tumor cell line panel, SRB growth assay. The note with it: Homo sapiens; DU-145, Prostate, 48 hours. On the procedure:
(§1) The compound of example 5 was also evaluated against a panel of cancer cell lines (Alley, M.C. et al. […] Cancer Research 48: 589-601; Grever, M. R., et al. (1992) Seminars in Oncology, Vol. 19, No. 6, pp 622-638; Boyd, M. R., and Paull, K. D. (1995) Drug Development Research 34: 91-109). The human tumor cell lines of the cancer screening panel were grown in RPMI 1640 medium containing 5% fetal bovine serum and 2 mM L-glutamine. Cells were inoculated into 96 well microtiter plates in 100 μL at plating densities ranging from 5,000 to 40,000 cells/well depending on the doubling time of individual cell lines. After cell inoculation, the microtiter plates were incubated at 37° C., 5 % CO2, 95 % air and 100 % relative humidity for 24 hours prior to addition of experimental drugs.
(§2) After the 24 hour incubation period, two plates of each cell line were fixed in situ with TCA, to represent a measurement of the cell population for each cell line at the time of drug addition (Tz). Experimental drugs were solubilized in dimethyl sulfoxide at 400-fold the desired final maximum test concentration and stored frozen prior to use. At the time of drug addition, an aliquot of frozen concentrate was thawed and diluted to twice the desired final maximum test concentration with complete medium containing 50 μg/ml gentamicin. Additional four, 10-fold or ½ log serial dilutions were made to provide a total of five drug concentrations plus control. Aliquots of 100 μl of these different drug dilutions were added to the appropriate microtiter wells already containing 100 μl of medium, resulting in the required final drug concentrations.
(§3) Following drug addition, the plates were incubated for an additional 48 hours at 37° C., 5 % CO2, 95 % air, and 100 % relative humidity. For adherent cells, the assay was terminated by the addition of cold TCA. Cells were fixed in situ by the gentle addition of 50 μl of cold 50 % (w/v) TCA (final concentration, 10% TCA) and incubated for 60 minutes at 4° C. The supernatant was discarded, and the plates were washed five times with tap water and air dried. Sulforhodamine B (SRB) solution (100 μl) at 0.4 % (w/v) in 1 % acetic acid were added to each well, and plates were incubated for 10 minutes at room temperature. After staining, unbound dye was removed by washing five times with 1 % acetic acid and the plates were air dried. Bound stain was subsequently solubilized with 10 mM trizma base, and the absorbance was read on an automated plate reader at a wavelength of 515 nm. For suspension of the cells, the methodology used was the same except that the assay was terminated by fixing settled cells at the bottom of the wells by gently adding 50 μl of 80 % TCA (final concentration, 16% TCA). Using the seven absorbance measurements [time zero, (Tz), control growth, (C), and test growth in the presence of drug at the five concentration levels (Ti)], the percentage growth was calculated at each of the drug concentrations levels.
(§4) Percentage growth inhibition was calculated as: [(Ti−Tz)/(C−Tz)]×100 for concentrations for which Ti>/=Tz [(Ti−Tz)/Tz]×100 for concentrations for which Ti<Tz.
(§5) Growth inhibition of 50% (GI50) was calculated from [(Ti−Tz)/(C−Tz)]×100=50, which is the drug concentration resulting in a 50% reduction in the net protein increase (as measured by SRB staining) in control cells during the drug incubation. The G150 was calculated for each of the cell lines if the level of activity is reached; however, if the effect was not reached or is exceeded, the value for that parameter is expressed as greater or less than the maximum (10^−4 M) or minimum (10^−8 M) concentration tested.
A general note: The SRB assay estimates cell density from bound dye.

The subject of a further assay is RXF 393. Put plainly: tumor cell line panel, SRB growth assay. The note with it: Homo sapiens; RXF 393, Renal, 48 hours. On the procedure: as §1, §2, §3, §4, §5
The subject of a further assay is MDA-MB-231/ATCC. Put plainly: tumor cell line panel, SRB growth assay. The note with it: Homo sapiens, Breast, 48 hours. As to the method: as §1, §2, §3, §4, §5
The subject of a further assay is SR. In words: tumor cell line panel, SRB growth assay. As to conditions: Homo sapiens, Leukemia, 48 hours. As to the method:
as §1, §2, §3, §4, §5

In a further assay the test system is HOP-62. Put plainly: tumor cell line panel, SRB growth assay. As to conditions: Homo sapiens; HOP-62, Non-Small Cell Lung, 48 hours. On the procedure:
as §1, §2, §3, §4, §5

A further assay concerns HS 578T. Put plainly: tumor cell line panel, SRB growth assay. As to conditions: Homo sapiens, Breast, 48 hours. On the procedure:
as §1, §2, §3, §4, §5

The test system of another assay is MDA-N. In words: tumor cell line panel, SRB growth assay. The note with it: Homo sapiens, Breast, 48 hours. On the procedure: as §1, §2, §3, §4, §5
For a further assay, the system named is SNB-19. In words: tumor cell line panel, SRB growth assay. The note with it: Homo sapiens; SNB-19, CNS, 48 hours. As to the method: as §1, §2, §3, §4, §5
The test system of a further assay is SF-539. In words: tumor cell line panel, SRB growth assay. The note with it: Homo sapiens; SF-539, CNS, 48 hours. On the procedure: as §1, §2, §3, §4, §5
In a further assay the test system is PC-3. Put plainly: tumor cell line panel, SRB growth assay. As to conditions: Homo sapiens; PC-3, Prostate, 48 hours. As to the method:
as §1, §2, §3, §4, §5

In another assay the test system is OVCAR-3. Put plainly: tumor cell line panel, SRB growth assay. As to conditions: Homo sapiens; OVCAR-3, Ovarian, 48 hours. As to the method:
as §1, §2, §3, §4, §5

A further assay deals with CAKI-1. Put plainly: tumor cell line panel, SRB growth assay. The note with it: Homo sapiens; CAKI-1, Renal, 48 hours. On the procedure: as §1, §2, §3, §4, §5
The subject of a further assay is HOP-92. In words: tumor cell line panel, SRB growth assay. The note with it: Homo sapiens; HOP-92, Non-Small Cell Lung, 48 hours. As to the method: as §1, §2, §3, §4, §5
The subject of another assay is SK-MEL-28. In words: tumor cell line panel, SRB growth assay. As to conditions: Homo sapiens; SK-MEL-28, Melanoma, 48 hours. On the procedure:
as §1, §2, §3, §4, §5

For another assay, the system named is MOLT-4. Put plainly: tumor cell line panel, SRB growth assay. As to conditions: Homo sapiens; MOLT-4, Leukemia, 48 hours. On the procedure:
as §1, §2, §3, §4, §5

For a further assay, the system named is NCI-H226. Put plainly: tumor cell line panel, SRB growth assay. The note with it: Homo sapiens; NCI-H226, Non-Small Cell Lung, 48 hours. As to the method:
as §1, §2, §3, §4, §5

For another assay, the system named is SK-MEL-2. In words: tumor cell line panel, SRB growth assay. The note with it: Homo sapiens; SK-MEL-2, Melanoma, 48 hours. On the procedure: as §1, §2, §3, §4, §5
The next assay relates to SF-268. Put plainly: tumor cell line panel, SRB growth assay. As to conditions: Homo sapiens; SF-268, CNS, 48 hours. On the procedure: as §1, §2, §3, §4, §5
Another assay has as its system SK-MEL-5. In words: tumor cell line panel, SRB growth assay. As to conditions: Homo sapiens; SK-MEL-5, Melanoma, 48 hours. As to the method: as §1, §2, §3, §4, §5
In another assay the test system is Ramos. In words: Inhibition of GC derived B cell lymphoma lines in culture. The note with it: Burkitt's lymphoma cell line, 0.01-100 nM.

With `CO[C@@H]1[C@H](OC(=O)N[C@@H](C(N)=O)C(C)C)CC[C@]2(CO2)[C@H]1[C@@]1(C)O[C@@H]1CC=C(C)C` [Example 5, (1-Carbamoyl-2-methyl-propyl)-carbamic acid-(3R, 4S, 5S, 6R )-5-methoxy-4-[(2R, 3R)-2-methyl-3-(3-methyl-but-2-enyl)-oxiranyl]-1-oxa-spiro[2.5]oct-6-yl ester], the GI50 with SU-DHL-16 is 0.0019 µM; in the assay on DU-145, less than 0.01 µM; with RXF 393, 40.2 µM; in the assay on MDA-MB-231/ATCC it was less than 0.01 µM; with SR it was less than 0.01 µM; in the assay on HOP-62, less than 0.01 µM. The 50% growth inhibitory concentration (GI50) was 1.15 µM in the assay with HS 578T; 1.58 µM in the assay with MDA-N; less than 0.01 µM in the assay with SNB-19; 20.6 µM with SF-539; 18 µM with PC-3; 41.8 µM in the assay on OVCAR-3. The GI50 in the assay with CAKI-1 was less than 0.01 µM; with HOP-92, 33.9 µM; in the assay with SK-MEL-28 it was 5.96 µM; in the assay on MOLT-4, 35.6 µM; in the assay on NCI-H226, 0.791 µM; with SK-MEL-2 it was greater than 100 µM. The concentration for 50% growth inhibition (GI50) in the assay on SF-268 was 26.1 µM; with SK-MEL-5, greater than 100 µM. Besides, the “inhibition of proliferation (in words)” value in the assay on Ramos was “inhibited the proliferation of all lymphoma lines tested except for the Ramos line”.

For the origin of these results see US20050059585A1, “Methionine aminopeptidase-2 inhibitors and methods of use thereof” (Praecis Pharmaceuticals Inc., priority 2000, published 2005).
